# Data as given in patent US20050037923A1, “Herbicidal mixture based on 7-pyrazolybenzoxazoles” (BASF Aktiengesellschaft, priority 2001, published 2005).
# Structures can show the parent of a compound that is named as a salt.
# Assays:
# [1] = system: BRAPL; test: Greenhouse test, post-emergence herbicidal action; format: in vivo, alexandergrass
# From the text: (§1) For the post-emergence treatment, the test plants were first grown to a height of 3 to 20 cm, depending on the plant habit, and only then treated. Here, the herbicidal compositions were suspended or emulsified in water as distribution medium and sprayed using finely distributing nozzles.
# (§2) The respective components A and B and/or C were formulated as 10% by weight strength emulsion concentrate and introduced to the spray liquor with the amount of solvent system used for applying the active compound. In the examples, the solvent used was water.
# (§3) The test period extended over 21 days. During this time, the plants were tended, and their response to the treatments with active compound was evaluated.
# (§4) The evaluation for the damage caused by the chemical compositions was carried out using a scale from 0 to 100%, compared to the untreated control plants. Here, 0 means no damage and 100 means complete destruction of the plants.
# (§5) In the examples below, the value E which is to be expected if the activity of the individual active compounds is just additive was calculated using the method of S. R. Colby (1967) “Calculating synergistic and antagonistic responses of herbicide combinations”, Weeds 15, p. 22 ff. E=X+Y—(X·Y/100) where • X=effect in percent using active compound A at an application rate a; • Y=effect in percent using active compound B at an application rate b; • E=expected effect (in %) of A+B at application rates a+b.
# (§6) The plants used in the greenhouse experiments were of the following species: […]
# [2] = system: BIDPI; test: Greenhouse test, post-emergence herbicidal action; format: in vivo, hairy beggarticks
# From the text: as §1, §2, §3, §4, §5, §6
# [3] = system: ECHCG; test: Greenhouse test, post-emergence herbicidal action; format: in vivo, barnyardgrass
# From the text: as §1, §2, §3, §4, §5, §6
# [4] = system: GALAP; test: Greenhouse test, post-emergence herbicidal action; format: in vivo, catchweed bedstraw
# From the text: as §1, §2, §3, §4, §5, §6
# [5] = system: ABUTH; test: Greenhouse test, post-emergence herbicidal action; format: in vivo, velvet leaf; settings: 21 days
# From the text: as §1, §2, §3, §4, §5, §6
# [6] = system: POLPE; test: Greenhouse test, post-emergence herbicidal action; format: in vivo, ladysthumb
# From the text: as §1, §2, §3, §4, §5, §6
# [7] = system: AVEFA; test: Greenhouse test, post-emergence herbicidal action; format: in vivo, wild oat
# From the text: as §1, §2, §3, §4, §5, §6
# [8] = system: crop plants; test: Safener action, pre-emergence, damage to crop plants; format: in vivo; settings: 21 days, application rate 100 g/ha
# From the text: (§7) For the pre-emergence treatment, the test plants were sown is pots 1-2 days later, i.e. prior to germination, the pots were sprayed with the finely distributed herbicidal compositions, which had been suspended in water.
# as §2, §4
# As in the example above, test plants were grown, treated with the mixture according to the invention by the Pre-emergence method and, after a test period of 21 days, evaluated using a scale from 0 to 100% damage. The test plants used were crop plants.
# A safener action is present if the damage to the crop plant caused by using a mixture according to the invention which comprises a safener C) is less than the damage caused when active compound A or active compounds A and B are used without safener.
# [9] = system: BIDPI; test: Greenhouse test, pre-emergence herbicidal action; format: in vivo, hairy beggarticks
# From the text: as §7, §2, §3, §4, §5, §6
# [10] = system: ABUTH; test: Greenhouse test, pre-emergence herbicidal action; format: in vivo, velvet leaf
# From the text: as §7, §2, §3, §4, §5, §6
# [11] = system: COMBE; test: Greenhouse test, post-emergence herbicidal action; format: in vivo, tropical spiderwort; settings: 21 days
# From the text: as §1, §2, §3, §4, §5, §6
# [12] = system: SETVI; test: Greenhouse test, post-emergence herbicidal action; format: in vivo, green foxtail; settings: application rate 15.63 g/ha
# From the text: as §1, §2, §3, §4, §5, §6
# [13] = system: SETFA; test: Greenhouse test, post-emergence herbicidal action; format: in vivo, giant foxtail; settings: 21 days
# From the text: as §1, §2, §3, §4, §5, §6
# [14] = application rate 0.49 g/ha (Example 32)
# [15] = application rate 0.98 g/ha (Example 32)
# [16] = application rate 3.91 g/ha (Example 26)
# [17] = application rate 3.91 g/ha (Example 27)
# [18] = application rate 62.5 g/ha, 21 days
# [19] = application rate 125 g/ha, 21 days
# [20] = application rate 125 g/ha (Example 28)
# [21] = application rate 250 g/ha (Example 28)
# [22] = application rate 31.25 g/ha, 21 days
# [23] = application rate 15.63 g/ha, 21 days
# [24] = application rate 125 g/ha (Example 32)
# [25] = application rate 250 g/ha (Example 32)
# [26] = application rate 7.81 g/ha, 21 days
# [27] = application rate 62.5 g/ha (Example 24)
# [28] = application rate 125 g/ha (Example 24)
smiles,measurement,setting,value
"CNC.O=C(O)COc1ccc(Cl)cc1Cl [2,4-D dimethylamine salt]","Herbicidal action against BRAPL, Found",[1]; application rate 31.25 g/ha,10%
same,"Herbicidal action against BRAPL, Found",[1]; application rate 62.5 g/ha,15%
same,"Herbicidal action against BIDPI, Found",[2]; application rate 31.25 g/ha,80%
same,"Herbicidal action against BIDPI, Found",[2]; application rate 62.5 g/ha (Example 31),80%
CCCc1nc2c(Cl)cc(F)c(-c3nn(C)c(OC(F)F)c3Br)c2o1 [I.15],"Herbicidal action against ECHCG, Found",[3]; [14],30%
same,"Herbicidal action against ECHCG, Found",[3]; [15],40%
same,"Herbicidal action against BRAPL, Found",[1]; application rate 0.49 g/ha,30%
same,"Herbicidal action against BRAPL, Found",[1]; application rate 0.98 g/ha,75%
same,"Herbicidal action against GALAP, Found",[4]; application rate 0.49 g/ha (Example 29),40%
same,"Herbicidal action against GALAP, Found",[4]; application rate 0.49 g/ha (Example 30),40%
same,"Herbicidal action against GALAP, Found",[4]; [14],40%
same,"Herbicidal action against GALAP, Found",[4]; application rate 0.98 g/ha (Example 29),70%
same,"Herbicidal action against GALAP, Found",[4]; application rate 0.98 g/ha (Example 30),70%
same,"Herbicidal action against GALAP, Found",[4]; [15],70%
same,"Herbicidal action against BIDPI, Found",[2]; application rate 0.49 g/ha,30%
same,"Herbicidal action against BIDPI, Found",[2]; application rate 0.98 g/ha,40%
CC(C)c1nc2c(Cl)cc(Cl)c(-c3nn(C)c(OC(F)F)c3Cl)c2o1 [I.18],"Herbicidal action against BIDPI, Found",[2]; application rate 1.95 g/ha (Example 26),60%
same,"Herbicidal action against BIDPI, Found",[2]; application rate 1.95 g/ha (Example 27),60%
same,"Herbicidal action against BIDPI, Found",[2]; [16],60%
same,"Herbicidal action against BIDPI, Found",[2]; [17],60%
CCc1cccc(C)c1N(C(=O)CCl)[C@@H](C)COC [S-metolachlor],"Herbicidal action against GALAP, Found",[4]; application rate 125 g/ha (Example 29),0%
same,"Herbicidal action against GALAP, Found",[4]; application rate 250 g/ha (Example 29),20%
"CCNc1nc(Cl)nc(NC(C)C)n1 [atrazine, reference compound]","Herbicidal action against ECHCG, Found",[3]; [18],45%
same,"Herbicidal action against ECHCG, Found",[3]; [19],65%
"CC(C)N1C(=O)c2ccccc2NS1(=O)=O [bentazone sodium salt, reference compound]","Herbicidal action against ABUTH, Found",[5]; application rate 125 g/ha,0%
same,"Herbicidal action against ABUTH, Found",[5]; application rate 250 g/ha,20%
same,"Herbicidal action against POLPE, Found",[6]; [19],15%
same,"Herbicidal action against POLPE, Found","[6]; application rate 250 g/ha, 21 days",25%
CC1(C)CON(Cc2ccccc2Cl)C1=O [clomazone],"Herbicidal action against POLPE, Found",[6]; application rate 125 g/ha,75%
same,"Herbicidal action against POLPE, Found",[6]; application rate 250 g/ha,75%
COc1c(Cl)ccc(Cl)c1C(=O)O [dicamba],"Herbicidal action against AVEFA, Found",[7]; [20],20%
same,"Herbicidal action against AVEFA, Found",[7]; [21],20%
same,"Herbicidal action against BRAPL, Found",[1]; [20],20%
same,"Herbicidal action against BRAPL, Found",[1]; [21],20%
C=CCN(CC=C)C(=O)C(Cl)Cl [dichlormid],"Damage to the crop plant corn (ZEAMX), cultivar Magister",[8],13%
same,"Damage to the crop plant corn (ZEAMX), cultivar P3751",[8],0%
C/C(=N\NC(=O)Nc1cc(F)cc(F)c1)c1ncccc1C(=O)O [diflufenzopyr sodium salt],"Herbicidal action against BIDPI, Found",[9]; application rate 62.5 g/ha,40%
same,"Herbicidal action against BIDPI, Found",[9]; application rate 125 g/ha,70%
same,"Herbicidal action against ABUTH, Found",[10]; application rate 62.5 g/ha,10%
same,"Herbicidal action against ABUTH, Found",[10]; application rate 125 g/ha,30%
CP(=O)(O)CCC(N)C(=O)O (centres unmarked) [glufosinate ammonium salt],"Herbicidal action against BRAPL, Found",[1]; application rate 125 g/ha (Example 17),45%
same,"Herbicidal action against BRAPL, Found",[1]; application rate 125 g/ha (Example 18),45%
CC(C)N.O=C(O)CNCP(=O)(O)O [glyphosate isopropylamine salt],"Herbicidal action against AVEFA, Found",[7]; application rate 250 g/ha (Example 15),40%
same,"Herbicidal action against AVEFA, Found",[7]; application rate 250 g/ha (Example 16),40%
"COCc1cnc(C2=NC(C)(C(C)C)C(=O)N2)c(C(=O)O)c1 (centres unmarked) [imazamox, reference compound]","Herbicidal action against BIDPI, Found",[2]; [22],20%
same,"Herbicidal action against BIDPI, Found",[2]; [18],60%
"Cc1cnc(C2=NC(=O)C(C)(C(C)C)N2)c(C(=O)O)c1 (centres unmarked) [imazapic, reference compound]","Herbicidal action against COMBE, Found",[11]; application rate 15.63 g/ha,0%
same,"Herbicidal action against COMBE, Found",[11]; application rate 31.25 g/ha,40%
same,"Herbicidal action against POLPE, Found",[6]; [23],75%
same,"Herbicidal action against POLPE, Found",[6]; [22],80%
"CCc1cnc(C2=NC(C)(C(C)C)C(=O)N2)c(C(=O)O)c1 (centres unmarked) [imazethapyr, reference compound]","Herbicidal action against COMBE, Found",[11]; application rate 15.63 g/ha,20%
same,"Herbicidal action against COMBE, Found",[11]; application rate 31.25 g/ha,40%
same,"Herbicidal action against POLPE, Found",[6]; [23],40%
same,"Herbicidal action against POLPE, Found",[6]; [22],60%
CC(C)c1ccc(NC(=O)N(C)C)cc1 [isoproturon],"Herbicidal action against BIDPI, Found",[2]; application rate 62.5 g/ha,30%
same,"Herbicidal action against BIDPI, Found",[2]; application rate 125 g/ha,60%
CCC(C)(CC)c1cc(NC(=O)c2c(OC)cccc2OC)on1 [isoxaben],"Herbicidal action against ECHCG, Found",[3]; [24],0%
same,"Herbicidal action against ECHCG, Found",[3]; [25],0%
same,"Herbicidal action against GALAP, Found",[4]; [24],0%
same,"Herbicidal action against GALAP, Found",[4]; [25],0%
CS(=O)(=O)c1ccc(C(=O)C2C(=O)CCCC2=O)c([N+](=O)[O-])c1 [mesotrione],"Herbicidal action against ECHCG, Found",[3]; application rate 7.81 g/ha,45%
same,"Herbicidal action against ECHCG, Found",[3]; application rate 15.63 g/ha,70%
COc1cc(OC)nc(NC(=O)NS(=O)(=O)c2ncccc2C(=O)N(C)C)n1 [nicosulfuron],"Herbicidal action against BIDPI, Found",[2]; [16],70%
same,"Herbicidal action against BIDPI, Found",[2]; application rate 7.81 g/ha (Example 26),80%
C[n+]1ccc(-c2cc[n+](C)cc2)cc1 [paraquat],"Herbicidal action against AVEFA, Found",[7]; application rate 62.5 g/ha,70%
same,"Herbicidal action against AVEFA, Found",[7]; application rate 125 g/ha,80%
O=C(Nc1ccc(F)cc1)c1cccc(Oc2cccc(C(F)(F)F)c2)n1 [picolinafen],"Herbicidal action against SETVI, Found",[12],40%
"CCCC(=NOCC(C)Oc1ccc(Cl)cc1)C1=C(O)CC(C2CCCSC2)CC1=O (centres unmarked) [profoxydim, reference compound]","Herbicidal action against GALAP, Found",[4]; [26],30%
same,"Herbicidal action against GALAP, Found",[4]; [23],30%
CCCOc1nn(C(=O)[N-]S(=O)(=O)c2ccccc2C(=O)OC)c(=O)n1C.[Na+] [propoxycarbazone sodium salt],"Herbicidal action against BIDPI, Found",[2]; [17],30%
same,"Herbicidal action against BIDPI, Found",[2]; application rate 7.81 g/ha (Example 27),40%
"CCOC(=O)c1cnn(C)c1S(=O)(=O)NC(=O)Nc1nc(OC)cc(OC)n1 [pyrazosulfuron-ethyl, reference compound]","Herbicidal action against AVEFA, Found",[7]; [23],0%
same,"Herbicidal action against AVEFA, Found",[7]; [22],10%
same,"Herbicidal action against POLPE, Found",[6]; [23],40%
same,"Herbicidal action against POLPE, Found",[6]; [22],55%
O=C(O)c1c(Cl)ccc2cc(Cl)cnc12 [quinclorac],"Herbicidal action against ECHCG, Found",[3]; [27],10%
same,"Herbicidal action against ECHCG, Found",[3]; [28],10%
same,"Herbicidal action against POLPE, Found",[6]; [27],15%
same,"Herbicidal action against POLPE, Found",[6]; [28],15%
"CC/C(=N\OC/C=C/Cl)C1=C(O)CC(C2CCOCC2)CC1=O (centres unmarked) [tepraloxydim, reference compound]","Herbicidal action against AVEFA, Found",[7]; [26],70%
same,"Herbicidal action against AVEFA, Found",[7]; [23],80%
same,"Herbicidal action against SETFA, Found",[13]; application rate 7.81 g/ha,70%
same,"Herbicidal action against SETFA, Found",[13]; application rate 15.63 g/ha,80%
